{
  "source": "patent US20120045459A1",
  "about": "“Methods for Treating Autophagy-Related Disorders” (Van Andel Research Institute, priority 2009, published 2012)",
  "key": {"U2OS cells [1]": {"tested_on": "U2OS cells", "assay": "Transmission electron microscopy of autophagic vesicles", "type": "cell-based, human", "conditions": "compared with control cells in full nutrients", "protocol": "Transmission electron microscopy (TEM). U2OS cells in 10-cm dishes were transfected with control or PTPRS siRNAs for 48 h. Cells were briefly trypsinized, pelleted, rinsed, and resuspended in 2% glutaraldehyde fixative. Cell pellets were embedded in 2% agarose, postfixed in osmium tetroxide, and dehydrated with an acetone series. […] Ultrathin sections (70 nm) were generated with a Power Tome XL (Boeckeler Instruments) and placed on copper grids. Cells were examined using a JEOL 100CX Transmission Electron Microscope at 100 kV. Autophagic structures were quantified from images encompassing approximately 8.5 μm2 of cell area each."}, "U2OS cells [2]": {"tested_on": "U2OS cells", "assay": "LC3B immunofluorescence of autophagic vesicles", "type": "cell-based, human", "conditions": "full growth medium, 25 uM chloroquine, 1 hr", "protocol": "Immunofluorescence and western blot analyses. U2OS cells were seeded at a density of 35,000 cells per well in McCoy's 5A medium supplemented with 10% FBS on number 1.5 coverglass in 24-well tissue culture plates (for immunofluorescence) or 150,000 cells per well on 6-well dishes (for western blot). After 24 h, siRNAs were transfected at a final concentration of 25 nM using 2 μl HiPerfect transfection reagents (Qiagen) per ml medium. Control siRNA was All-star negative control (Qiagen) and PTPRS siRNAs were two unique sequences (SI02759288, SI03056284, Qiagen). […] For western blots, cells were lysed (in 10 mM KPO4, 1 mM EDTA, 10 mM MgCl2, 5 mM EGTA, 50 mM bisglycerophosphate, 0.5% NP40, 0.1% Brij35, 0.1% sodium deoxycholate, 1 mM NaVO4, 5 mM NaF, 2 mM DTT, AEBSF, aprotinin, bestatin hydrochloride, E64, leupeptin, and pepstatin A and 20 μg of total protein was resolved by SDS-PAGE. Membranes were probed with primary antibodies (LC3B, Cell Signaling Technologies; α-tubulin, Sigma) for 16 h at 4° C. followed by secondary antibodies (HRP-linked anti-rabbit or anti-mouse IgG) for 1 h at room temperature. Proteins were detected by enhanced chemiluminescence. For immunofluorescence, cells were fixed with 3.7% formaldehyde, permeabilized with 0.2% Triton-X 100, and blocked with 3% bovine serum albumin (BSA) in PBS. […]"}},
  "data": [
    {"smiles": "CCN(CC)CCCC(C)Nc1ccnc2cc(Cl)ccc12", "note": "(centres unmarked) [chloroquine]", "values": [
      {"measurement": "autophagic vesicles (AVs) by TEM", "setting": "U2OS cells [1]", "result": "evident"},
      {"measurement": "LC3-positive aggregates (AVs)", "setting": "U2OS cells [2]", "result": "LC3-positive aggregates accumulate"}
    ]}
  ]
}
